Source: ChEMBL document CHEMBL1817634, “One-pot synthesis of pyrazoline derivatised carbazoles as antitubercular, anticancer agents, their DNA cleavage and antioxidant activities” (2011)
In brackets after ≈: the same amount, converted by molar mass. Activity calls are given as the source filed them. The rule behind the calls is not given here.

Experiments:
[1] = tested on: A549; assay: Anticancer activity against human A549 cells assessed as cell growth at 10 ug/mL by sulforhodamine B assay; type: functional; details: read-out: Activity
[2] = tested on: A498; assay: Anticancer activity against human A498 cells assessed as cell growth at 20 ug/mL by sulforhodamine B assay; type: functional; details: read-out: Activity
[3] = Antioxidant activity assessed as potassium ferric cyanide reducing power at 10 ug after 20 mins by spectrophotometry; type: functional
[4] = tested on: A549; assay: Anticancer activity against human A549 cells assessed as cell growth at 80 ug/mL by sulforhodamine B assay; type: functional; details: read-out: Activity
[5] = tested on: A549; assay: Anticancer activity against human A549 cells assessed as cell growth at 40 ug/mL by sulforhodamine B assay; type: functional; details: read-out: Activity
[6] = tested on: A498; assay: Cytotoxicity against human A498 cells; type: functional
[7] = tested on: Nucleic Acid; assay: Induction of Escherichia coli DNA cleavage at 100 ug after 2 hrs by agarose gel electrophoresis; type: nucleic-acid assay
[8] = tested on: A498; assay: Anticancer activity against human A498 cells assessed as cell growth at 40 ug/mL by sulforhodamine B assay; type: functional; details: read-out: Activity
[9] = Antioxidant activity assessed as potassium ferric cyanide reducing power at 50 ug after 20 mins by spectrophotometry; type: functional
[10] = Antioxidant activity assessed as potassium ferric cyanide reducing power at 100 ug after 20 mins by spectrophotometry; type: functional
[11] = tested on: A498; assay: Anticancer activity against human A498 cells assessed as cell growth at 80 ug/mL by sulforhodamine B assay; type: functional; details: read-out: Activity
[12] = tested on: A549; assay: Cytotoxicity against human A549 cells; type: functional
[13] = tested on: Mycobacterium tuberculosis; assay: Antitubercular activity against Mycobacterium tuberculosis H37Rv after 3 weeks by turbidity assay; type: functional; details: 504 h
[14] = tested on: A498; assay: Anticancer activity against human A498 cells assessed as cell growth at 10 ug/mL by sulforhodamine B assay; type: functional; details: read-out: Activity
[15] = tested on: A549; assay: Anticancer activity against human A549 cells assessed as cell growth at 20 ug/mL by sulforhodamine B assay; type: functional; details: read-out: Activity

c1ccc(C2CC(c3ccc4[nH]c5c(c4c3)CCCC5)=NN2)cc1 (stereo not drawn)
growth at 10 µg/mL [1]: 98.8%
growth at 20 µg/mL [2]: 99.1%
reducing power [3]: 0.01 absorbance
growth at 80 µg/mL [4]: 48.7%
growth at 40 µg/mL [5]: 88.4%
GI50 [6]: 55.6 µg/mL (≈ 176 µM)
LC50 [6]: > 80 µg/mL
TGI [6]: > 80 µg/mL
Activity [7]: inactive
growth at 40 µg/mL [8]: 95.9%
reducing power [9]: 0.102 absorbance
reducing power [10]: 0.126 absorbance
growth at 80 µg/mL [11]: 3.9%
GI50 [12]: > 80 µg/mL
LC50 [12]: > 80 µg/mL
TGI [12]: > 80 µg/mL
MIC [13]: 12 µg/mL (≈ 38 µM)
growth at 10 µg/mL [14]: 100%
growth at 20 µg/mL [15]: 94.8%

CN[C@@H]1[C@H](O[C@H]2[C@H](O[C@H]3[C@H](O)[C@@H](O)[C@H](N=C(N)N)[C@@H](O)[C@@H]3N=C(N)N)O[C@@H](C)[C@]2(O)C=O)O[C@@H](CO)[C@H](O)[C@H]1O [STREPTOMYCIN]
MIC [13]: 7.5 µg/mL (≈ 12.9 µM)

Cc1ccc(C2CC(c3ccc4[nH]c5c(c4c3)CCCC5)=NN2)cc1 (stereo not drawn)
growth at 10 µg/mL [1]: 11.9%
growth at 20 µg/mL [2]: 99.2%
reducing power [3]: 0.05 absorbance
growth at 80 µg/mL [4]: -28.4%
growth at 40 µg/mL [5]: -18.5%
GI50 [6]: 54 µg/mL (≈ 164 µM)
LC50 [6]: > 80 µg/mL
TGI [6]: > 80 µg/mL
Activity [7]: inactive
growth at 40 µg/mL [8]: 96.2%
reducing power [9]: 0.11 absorbance
reducing power [10]: 0.17 absorbance
growth at 80 µg/mL [11]: 4.6%
GI50 [12]: 74.3 µg/mL (≈ 226 µM)
LC50 [12]: > 80 µg/mL
TGI [12]: > 80 µg/mL
MIC [13]: 12 µg/mL (≈ 36.4 µM)
growth at 10 µg/mL [14]: 99.3%
growth at 20 µg/mL [15]: -2.9%

Oc1ccc(C2CC(c3ccc4[nH]c5c(c4c3)CCCC5)=NN2)cc1 (stereo not drawn)
growth at 10 µg/mL [1]: 83.2%
growth at 20 µg/mL [2]: 86%
reducing power [3]: 0.125 absorbance
growth at 80 µg/mL [4]: 11.5%
growth at 40 µg/mL [5]: 67.1%
GI50 [6]: 74.5 µg/mL (≈ 225 µM)
LC50 [6]: > 70 µg/mL
TGI [6]: > 70 µg/mL
Activity [7]: inactive
growth at 40 µg/mL [8]: 83%
reducing power [9]: 0.14 absorbance
reducing power [10]: 0.25 absorbance
growth at 80 µg/mL [11]: 3.9%
GI50 [12]: 76.5 µg/mL (≈ 231 µM)
LC50 [12]: > 70 µg/mL
TGI [12]: > 70 µg/mL
MIC [13]: 3.5 µg/mL (≈ 10.6 µM)
growth at 10 µg/mL [14]: 83%
growth at 20 µg/mL [15]: 74.6%

Oc1ccccc1C1CC(c2ccc3[nH]c4c(c3c2)CCCC4)=NN1 (stereo not drawn)
growth at 10 µg/mL [1]: 11.9%
growth at 20 µg/mL [2]: 99.5%
reducing power [3]: 0.118 absorbance
growth at 80 µg/mL [4]: -28.4%
growth at 40 µg/mL [5]: -18.5%
GI50 [6]: 62.3 µg/mL (≈ 188 µM)
LC50 [6]: > 80 µg/mL
TGI [6]: > 80 µg/mL
Activity [7]: inactive
growth at 40 µg/mL [8]: 97.7%
reducing power [9]: 0.137 absorbance
reducing power [10]: 0.246 absorbance
growth at 80 µg/mL [11]: 16.5%
GI50 [12]: 75.7 µg/mL (≈ 228 µM)
LC50 [12]: > 70 µg/mL
TGI [12]: > 70 µg/mL
MIC [13]: 4.5 µg/mL (≈ 13.6 µM)
growth at 10 µg/mL [14]: 99.3%
growth at 20 µg/mL [15]: -2.9%

COc1cccc2c1C(=O)c1c(O)c3c(c(O)c1C2=O)C[C@@](O)(C(=O)CO)C[C@@H]3O[C@H]1C[C@H](N)[C@H](O)[C@H](C)O1 [DOXORUBICIN]
growth at 10 µg/mL [1]: 10.7%
growth at 20 µg/mL [2]: 8.2%
growth at 80 µg/mL [4]: -66.9%
growth at 40 µg/mL [5]: -39.5%
GI50 [6]: < 10 µg/mL
TGI [6]: 32.4 µg/mL (≈ 59.6 µM)
growth at 40 µg/mL [8]: -39.5%
growth at 80 µg/mL [11]: -66.9%
GI50 [12]: < 10 µg/mL
TGI [12]: 41.3 µg/mL (≈ 76 µM)
growth at 10 µg/mL [14]: 10.7%
growth at 20 µg/mL [15]: 8.2%

Clc1ccccc1C1CC(c2ccc3[nH]c4c(c3c2)CCCC4)=NN1 (stereo not drawn)
growth at 10 µg/mL [1]: 90.2%
growth at 20 µg/mL [2]: 100%
reducing power [3]: 0.004 absorbance
growth at 80 µg/mL [4]: 12.1%
growth at 40 µg/mL [5]: 75.7%
GI50 [6]: 62 µg/mL (≈ 177 µM)
LC50 [6]: > 80 µg/mL
TGI [6]: > 80 µg/mL
Activity [7]: inactive
growth at 40 µg/mL [8]: 97.4%
reducing power [9]: 0.121 absorbance
reducing power [10]: 0.295 absorbance
growth at 80 µg/mL [11]: 16.2%
GI50 [12]: 51.6 µg/mL (≈ 147 µM)
LC50 [12]: > 80 µg/mL
TGI [12]: > 80 µg/mL
MIC [13]: 5 µg/mL (≈ 14.3 µM)
growth at 10 µg/mL [14]: 100%
growth at 20 µg/mL [15]: 81.6%
